{"source": "patent WO2016087994A1", "about": "“Btk inhibitors to treat solid tumors through modulation of the tumor microenvironment” (dated 2016)", "key": {"[1]": {"test_system": "GPVI platelet aggregation", "test": "GPVI (convulxin-induced) human platelet aggregation", "format": "cell-based"}, "[2]": {"test_system": "rituximab-coated Raji cells", "test": "Rituximab ADCC, chromium release, Raji targets", "format": "cell-based, human", "conditions": "1 μM; healthy donor NK cells / Raji; listed as ibrutinib"}, "[3]": {"test_system": "B cell receptor (CD69 on CD19+ B cells)", "test": "Inhibition of BCR signaling (CD69) on B cells in whole blood", "format": "cell-based", "conditions": "Homo sapiens, 18 h"}, "CD4 + T cells": {"test_system": "CD4 + T cells", "test": "Th17 and Treg development of CD4+ T cells", "format": "cell-based"}, "CD8 + T cells [4]": {"test_system": "CD8 + T cells", "test": "CD8+ T cell viability", "format": "cell-based", "conditions": "higher concentrations of ibrutinib; any concentration of Formula (II)"}, "[5]": {"test_system": "CD8 + T cells with B lymphoblast targets", "test": "Cytotoxic T cell (CTL) assay", "format": "cell-based", "conditions": "500 nM, relative to vehicle"}, "CD8 + T cells [6]": {"test_system": "CD8 + T cells", "test": "CD8+ T cell IFN-γ levels", "format": "cell-based", "conditions": "relative to vehicle"}, "[7]": {"biological_target": "epidermal growth factor receptor (EGFR) (Homo sapiens, UniProt P00533)", "sequence (P00533 25-1210)": "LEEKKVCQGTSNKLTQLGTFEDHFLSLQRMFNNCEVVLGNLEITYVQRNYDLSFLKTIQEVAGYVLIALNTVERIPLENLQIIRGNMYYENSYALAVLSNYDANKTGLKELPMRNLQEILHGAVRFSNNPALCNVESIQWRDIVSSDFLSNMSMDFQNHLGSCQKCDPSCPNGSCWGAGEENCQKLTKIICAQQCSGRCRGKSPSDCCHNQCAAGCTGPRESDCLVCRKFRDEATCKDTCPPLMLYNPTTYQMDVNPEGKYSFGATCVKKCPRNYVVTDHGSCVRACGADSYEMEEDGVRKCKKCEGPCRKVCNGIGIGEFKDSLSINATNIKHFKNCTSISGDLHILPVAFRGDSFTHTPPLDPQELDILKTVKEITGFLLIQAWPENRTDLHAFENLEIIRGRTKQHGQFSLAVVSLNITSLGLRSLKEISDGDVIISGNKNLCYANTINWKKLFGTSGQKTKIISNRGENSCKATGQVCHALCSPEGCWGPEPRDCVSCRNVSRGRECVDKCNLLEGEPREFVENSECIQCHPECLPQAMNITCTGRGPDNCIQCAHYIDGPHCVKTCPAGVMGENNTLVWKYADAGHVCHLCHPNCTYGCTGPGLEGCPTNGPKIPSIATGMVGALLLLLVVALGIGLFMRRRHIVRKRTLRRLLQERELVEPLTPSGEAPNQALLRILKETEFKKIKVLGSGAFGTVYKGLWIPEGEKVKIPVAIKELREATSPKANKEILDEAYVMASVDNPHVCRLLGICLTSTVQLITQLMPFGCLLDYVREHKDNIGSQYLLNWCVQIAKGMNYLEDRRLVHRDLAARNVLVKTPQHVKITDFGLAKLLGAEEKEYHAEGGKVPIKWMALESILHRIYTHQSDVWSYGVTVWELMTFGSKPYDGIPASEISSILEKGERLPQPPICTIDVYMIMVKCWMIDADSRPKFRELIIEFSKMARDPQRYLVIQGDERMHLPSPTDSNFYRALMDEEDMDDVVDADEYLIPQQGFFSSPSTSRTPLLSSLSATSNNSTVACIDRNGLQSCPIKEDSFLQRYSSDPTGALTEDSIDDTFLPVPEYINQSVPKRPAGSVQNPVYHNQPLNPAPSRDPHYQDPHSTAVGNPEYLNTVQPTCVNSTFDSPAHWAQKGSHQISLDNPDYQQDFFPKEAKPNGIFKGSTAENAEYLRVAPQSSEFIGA", "conditions": "cited from earlier work"}, "[8]": {"test_system": "CLL/lymphoid malignancies", "conditions": "human, in vivo; cited from earlier work"}, "[9]": {"conditions": "420 mg QD; cited from earlier work"}, "[10]": {"test_system": "metastatic pancreatic cancer", "conditions": "Phase 3; P < 0.001; cited from earlier work"}, "[11]": {"test_system": "human platelet-mediated thrombosis", "test": "In vivo human platelet thrombus formation after laser injury in VWF HA1 mice", "design": "species or system human platelets in VWF HA1 mice"}, "CLL": {"test_system": "CLL", "conditions": "cited from earlier work"}, "[12]": {"conditions": "Phase 1, previously treated CLL, monotherapy"}}, "note": "Entries after “also recorded” stand apart in the source; their conditions may differ.", "data": [{"molecule": "C=CC(=O)N1CCC[C@@H](n2nc(-c3ccc(Oc4ccccc4)cc3)c3c(N)ncnc32)C1", "note": "[Formula (X), l-[(3i?)-3-[4-amino-3-(4-phenoxyphenyl)-lH-pyrazolo[3,4-i]pyrimidin-l-yl]piperidin-l-yl]prop-2-en-l-one]", "values": [{"measurement": "inhibition of GPVI platelet aggregation (in words)", "setting": "[1]", "value": "significantly inhibits GPVI platelet aggregation"}, {"measurement": "IC50", "setting": "[1]; Homo sapiens, Platelet, read-out: IC50, GPVI platelet aggregation", "value": 0.13, "unit": "µM"}, {"measurement": "inhibition of rituximab ADCC (in words)", "setting": "[2]", "value": "completely inhibited ADCC; also recorded: strongly inhibited the antibody-dependent lysis of target cells"}, {"measurement": "EC50", "setting": "[3]", "value": 0.0061, "unit": "µM"}, {"measurement": "Th17 development (in words)", "setting": "CD4 + T cells", "value": "profound inhibition of Thl7 cells"}, {"measurement": "Treg development (in words)", "setting": "CD4 + T cells", "value": "increase in Treg development"}, {"measurement": "CD8+ T cell viability (in words)", "setting": "CD8 + T cells [4]", "value": "strong, negative effect on CD8 + T cell viability"}, {"measurement": "CD8+ T cell function as % cytotoxicity (in words)", "setting": "[5]", "value": "affects CD8 + T cell function"}, {"measurement": "CD8+ T cell function as IFN-γ level (in words)", "setting": "CD8 + T cells [6]", "value": "affects CD8 + T cell function; also recorded: significant loss of function"}, {"measurement": "inhibition of EGFR (in words)", "setting": "[7]", "value": "inhibits epidermal growth factor receptor (EGFR)"}, {"measurement": "onset of lymphocytosis after start of therapy", "setting": "[8]", "value": "1-2 weeks"}, {"measurement": "time to plateau of lymphocytosis", "setting": "[8]", "value": "2-3 cycles"}, {"measurement": "bleeding events in CLL", "setting": "[9]", "value": 63, "unit": "%"}]}, {"molecule": "Nc1ccn([C@@H]2O[C@H](CO)[C@@H](O)C2(F)F)c(=O)n1", "note": "[gemcitabine, 4-amino-l-((2i?,4i?,5i?)-3,3-difluoro-4-hydroxy-5-(hydroxymethyl)tetrahydrofuran-2-yl)pyrimidin-2(lH)-one]", "values": [{"measurement": "ORR", "setting": "[10]", "value": 7, "unit": "%"}, {"measurement": "median OS", "setting": "[10]", "value": 6.7, "unit": "months"}, {"measurement": "median PFS", "setting": "[10]", "value": 3.7, "unit": "months"}]}, {"molecule": "C=CC(=O)Nc1cccc(Nc2nc(Nc3ccc(OCCOC)cc3)ncc2F)c1", "note": "[Formula (XVII), N-(3-((5-fluoro-2-((4-(2-methoxyethoxy)phenyl)amino)pyrimidin-4-yl)amino)phenyl)acrylamide, reference compound]", "values": [{"measurement": "effect on thrombus formation (in words)", "setting": "[11]", "value": "interfere with thrombus formation; also recorded: an effect similar to Formula (X) (ibrutinib)"}]}, {"molecule": "obinutuzumab: humanized monoclonal antibody directed against CD20", "values": [{"measurement": "MRD-negative complete responses", "setting": "CLL; [12]", "value": 1}, {"measurement": "response rate", "setting": "CLL; [12]", "value": 62, "unit": "%"}, {"measurement": "infusion related reactions (IRR), Grade 3", "setting": "CLL; R/R CLL, Phase 1 portion, n=13", "value": 15, "unit": "%"}, {"measurement": "infusion related reactions (IRR), Grade 4 (in words)", "setting": "CLL; R/R CLL, Phase 1 portion, n=13", "value": "no Grade 4"}, {"measurement": "infusion related reactions (IRR), all grade", "setting": "CLL; R/R CLL, Phase 1 portion, n=13", "value": "100 % of patients"}, {"measurement": "Grade 3 reactions among those with hypotension", "setting": "CLL; R/R CLL, Phase 2 portion", "value": 25, "unit": "%"}, {"measurement": "IRR cases developing symptoms of hypotension", "setting": "CLL; R/R CLL, Phase 2 portion", "value": "60 % of cases"}, {"measurement": "patients with IRR", "setting": "CLL; R/R CLL, Phase 2 portion", "value": "95 % of patients"}]}]}
